# Assay results from paper PMC3561363, “A Novel Retro-Inverso Peptide Inhibitor Reduces Amyloid Deposition, Oxidation and Inflammation and Stimulates Neurogenesis in the APPswe/PS1ΔE9 Mouse Model of Alzheimer’s Disease” (PLoS ONE, 2013).
# Where a SMILES comes first, the peptide text is derived from it.
# Tests used:
# [1] = test system: 8-oxo-guanine in APP/PS1 mouse cortex; assay: Oxidative stress, 8-oxo-guanine immunostaining, cortex; type: in vivo; conditions: 100 nmol/kg i.p. once daily, 21 days, 10 months old APP/PS1 mice, vs saline, p<0.0001, 4 animals per group
# Method: (§1) APPswe/PS1ΔE9 mice with a C57Bl/6 background (APP/PS1 mice) were obtained from the Jackson lab (http://research.jax.org/repository/alzheimers.html). […] To look at the effects of RI-OR2-TAT on mouse brain pathology (experiment 2), 8 female 10-months-old APP/PS1 mice were used. The animals were housed in single cages in a temperature controlled holding room (21.5°C±1) with 12∶12 h light and dark cycle. Food and water was available ad libitum.
# (§2) For experiment 2, 4 animals were injected intraperitonially (i.p.) with 0.9% NaCl (vehicle control) and the other 4 with RI-OR2-TAT (100 nmol/kg in 0.9% NaCl) once daily, for 21 days. […]
# (§3) For experiment 2 (effects on brain pathology), sections were examined for activated microglia (using anti-Iba-1 antibody), oxidative stress (anti-8-oxo-guanine antibody), immature neurons (anti-doublecourtin antibody) or total plaque load (anti-Aβ antibody). […] Oxidative stress was assessed by denaturing DNA in each section using 2N HCl and the sections were then stained for 8-oxo guanine (1∶200 dilution, MAB3560, Millipore). Young immature neurons were detected by immunostaining for doublecortin (1∶200 dilution, sc-66911, Santa Cruz Biotechnology). Total plaque load was quantified by immunostaining for β-amyloid (1∶200 dilution, Invitrogen, 71–5800).
# (§4) All sections were visualized using an Axio Scope 1 fluorescence microscope (Zeiss, Germany). […]
# Aβ42 fibrils = Aβ42 fibrils (Homo sapiens, UniProt P05067); assay: Surface plasmon resonance (SPR), immobilized Aβ42 fibrils; type: binding
# Method: These experiments were conducted using a Sensi Q semi-automatic SPR machine (ICx Nomadics). This apparatus has two parallel flow cells; one was used to immobilize Aβ42 fibrils while the other was used as “reference” (empty surface). A COOH5 sensor chip (ICx Nomadics) was employed for this purpose and the peptide was immobilized by amine coupling chemistry. Briefly, after surface activation, the peptide preparation was diluted to 10 µM in acetate buffer (pH 4.0) and then injected for 5 min at a flow rate of 30 µl/min. Any remaining activated groups were blocked with ethanolamine (pH 8.0). The final immobilization level was ∼5,000 resonance units (1 RU = 1 pg of protein/mm^2). The empty “reference” surface was prepared in parallel using the same immobilization procedure, but without addition of the peptide. Sensorgrams were then obtained via injection of three different concentrations of RI-OR2–TAT (1, 3 and 6 µM), as well as the vehicle (PBS with 0.005% Tween 20), over the immobilized ligand or control surface, in parallel. These SPR data can be interpreted to provide an estimate for the affinity of binding of the inhibitors to Aβ fibrils, [28]. Data for the three concentrations of RI-OR2-TAT were fitted separately by Qdat software [ICx Nomadics] using the 1∶1 pseudo-first order Langmuir interaction model. Eq. 1 was used to fit the association while the dissociation was fitted by eq. 2. The rate constants (kon and koff) were used to calculate kd as reported in eq. 3. [drawing 1] (1) [drawing 2] (2) [drawing 3] (3) Where Rt is binding response at time t; C is the molar concentration of the analyte at the interaction surface at time t; Rmax is the maximal binding response; R0 is the binding response at time t0 (i. e. time at the onset of the dissociation phase); kon is the association rate constant; koff is the dissociation rate constant. Values were expressed as a mean ± SD.
# [2] = test system: activated microglia (Iba1) in APP/PS1 mouse cortex; assay: Activated microglia, Iba1 immunostaining, cortex; type: in vivo; conditions: 100 nmol/kg i.p. once daily, 21 days, 10 months old APP/PS1 mice, vs saline, p<0.0001, 4 animals per group
# Method: as §1, §2, §3, §4
# [3] = test system: doublecortin-expressing neurons in APP/PS1 mouse dentate gyrus; assay: Young immature neurons, doublecortin immunostaining, dentate region; type: in vivo; conditions: 100 nmol/kg i.p. once daily, 21 days, 10 months old APP/PS1 mice, vs saline, p<0.0001, 4 animals per group
# Human oligomerised Aβ = assay: Soluble Aβ oligomer levels in brain, sandwich ELISA; type: in vivo, human Aβ in APP/PS1 mice; conditions: 100 nmol/kg i.p. once daily, 21 days, 10 months old APP/PS1 mice, vs saline; p<0.01, 4 animals per group
# Method: as §1
# For experiment 2, 4 animals were injected intraperitonially (i.p.) with 0.9% NaCl (vehicle control) and the other 4 with RI-OR2-TAT (100 nmol/kg in 0.9% NaCl) once daily, for 21 days. On the 22nd day, the animals were perfused transcardially with ice-cold PBS and 4% paraformaldehyde and then the brains were removed and post-fixed in 4% ice cold paraformaldehyde.
# Human oligomerised Aβ was measured using a kit purchased from Invitrogen, according to the manufacturer’s instructions. Briefly, the right hemispheres from the brains of transgenic APP/PS1 mice treated with RI-OR2-TAT, or controls, were pooled separately and homogenized. Quantification of total protein was determined using the Bradford protein assay and was measured on a Nanophotometer (Implen, Germany). The homogenates were centrifuged at 100,000 g at 4°C for 1 h. […] The final Aβ oligomer values were determined following normalization of total protein levels.
# Chain of Aβ42 fibrils (P05067 672-713 limits assumed): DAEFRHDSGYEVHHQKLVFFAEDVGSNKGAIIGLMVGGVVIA
smiles,measurement,setting,value
"CC(=O)N[C@H](CCCNC(=N)N)C(=O)NCC(=O)N[C@H](Cc1ccccc1)C(=O)N[C@H](Cc1ccccc1)C(=O)N[C@@H](C(=O)N[C@H](CC(C)C)C(=O)N[C@H](CCCCN)C(=O)NCC(=O)N[C@H](CCCNC(=N)N)C(=O)N[C@H](CCCNC(=N)N)C(=O)N[C@H](CCCNC(=N)N)C(=O)N[C@H](CCCNC(=N)N)C(=O)N[C@H](CCC(N)=O)C(=O)N[C@H](CCCNC(=N)N)C(=O)N[C@H](CCCNC(=N)N)C(=O)N[C@H](CCCCN)C(=O)N[C@H](CCCCN)C(=O)N[C@H](CCCNC(=N)N)C(=O)NCC(=O)N[C@H](Cc1ccc(O)cc1)C(N)=O)C(C)C [RI-OR2-TAT, Ac-rGffvlkGrrrrqrrkkrGy-NH2] (HELM PEPTIDE1{[ac].[dR].G.[dF].[dF].[dV].[dL].[dK].G.[dR].[dR].[dR].[dR].[dQ].[dR].[dR].[dK].[dK].[dR].G.[dY].[am]}$$$$V2.0)",reduction of 8-oxo-guanine immunostaining (oxidative damage),[1],25%
same,fold lower kd than previously reported for RI-OR2,"Aβ42 fibrils; Aβ42 fibrils, SPR, RI-OR2 value from ref 16",~100 -fold
same,koff,"Aβ42 fibrils; SPR, 1, 3 and 6 µM, 1∶1 Langmuir model, PBS with 0.005% Tween 20, mean ± SD, read-out: koff (dissociation rate constant)",0.00037 ± 0.00015 s⁻¹
same,kon,"Aβ42 fibrils; SPR, 1, 3 and 6 µM, 1∶1 Langmuir model, PBS with 0.005% Tween 20, mean ± SD, read-out: kon (association rate constant)",3680 ± 615 M⁻¹ s⁻¹
same,Kd,"Aβ42 fibrils; SPR, Aβ42 fibrils, from koff and kon, 1∶1 Langmuir model, three concentrations fitted separately, read-out: kd (calculated apparent affinity)",58 to 125 nM
same,reduction of number of activated microglia,[2],44%
same,increase in mean number of young doublecortin-expressing neurons,[3],210%
same,reduction of soluble Aß oligomer levels in brain,Human oligomerised Aβ,25%
